Entries after “also recorded” stand apart in the source; their conditions may differ.
What was measured:
Syngap1+/- mice = details: cited from earlier work
PV+ interneurons = test: AMPA insertion and hyperexcitable phenotype in SynGAP1 mice; format: in vivo; details: low dose
[1] = test system: patient with pathogenic SYNGAP1 variant; test: Case study of low-dose PMP: tolerability, therapy evaluations, sleep, clinical seizures; format: in vivo, human
Experimental: (§1) A […] […] daughter with pathogenic SYNGAP1 variant was trialed on low doses of PMP.
The child has now been on low-dose PMP (<2 mg daily) for over one year. We here discuss the safety profile, changes in the electroencephalographic (EEG) features and clinical features, especially in the developmental profile and sleep pre-and-post PMP. We hypothesize that PMP at doses lower than typically used as an antiseizure medication will be safe in patients with SYNGAP1-DEE and help normalize sleep and behavioral disorders. Almost 50% of SYNGAP1-DEE related epilepsies are refractory to treatment from the very onset and currently very few children are prescribed PMP even for seizure control such that only 1 of 57 patients in a cohort study was documented to have been on it(3).
(§2) Clinical data from physician's clinic notes; genetic testing reports; developmental scores from occupational therapy, physical therapy, speech and language therapy evaluations; and applied behavioral analysis (ABA) reports were reviewed.
(§3) Low-dose PMP at 0.2 mg every night was started when they were 25 months of age. […] The Verbal Behavior Milestones Assessment and Placement Program (VB-MAPP) which is an assessment and skills-tracking system to assess the language, learning and social skills of children with autism or other developmental disabilities was used to evaluate their language and other related social skills. […] Patients' baseline VB-MAPP score […] (prior to starting PMP) was 7/45, which improved to 10/45 at 3 months post PMP and then to 17.5/45 at 10 and 13 months post PMP with 37.2% of developmental goals mastered. A follow-up overnight EEG was done […]. […] Multifocal epileptiform discharges, which were rarely observed in their prior EEGs, were noted over the temporal and central head regions bilaterally and occurred independently. At times the centro-temporal discharges occurred synchronously. These discharges were most prevalent in the N2 sleep, which increased in prevalence in subsequent N2 sleep cycles (FIG. 3). Finally, similar to dysregulated gamma seen during behavioral transition points from wake to NREM sleep in Syngap1^+/− mice, we also observed gamma dysregulation in our patient's pre-PMP EEG, where gamma power was increased during NREM when transitioning from REM and, therefore, presenting a positive slope (FIG. 4).

[2] = test system: juvenile HET+/- (Syngap1+/-) mice; test: Spike frequency over 24 h EEG; format: in vivo; details: low-dose PMP
Experimental: (§4) 24 h tethered vEEG recording was performed for Het+/− mice and their age- and sex matched WT littermates at P21-P30, followed by telemetric vEEG for 24 h with 6 h SD at P35. Quantitative EEG (qEEG) analysis included the frequency bands: delta (0.5-4.0 Hz), theta(5.5-8.0 Hz), alpha (8.0-13.0 Hz), beta (13.0-30 Hz), and gamma (35-50 Hz). Linear regression of gamma frequency power during transition states from wake to sleep was quantified. Spike frequency over 24 h EEG was scored by a blind reviewer based on previously published parameters. The effect of low-dose PMP (2 mg/kg, IP, BD), an AMPA receptor antagonist, on these potential qEEG biomarkers was investigated. Additionally, movement analysis was performed using infrared cameras to trace fast-active movements between 5 am-7 am. 24 h telemetric vEEG was recorded during marble burying and novel object behavioral tests.

[3] = test system: juvenile HET+/- (Syngap1+/-) mice; test: 24 h vEEG quantitative EEG (gamma slope, delta power), with or without 6 h sleep deprivation; format: in vivo; details: for delta power during NREM: one-way ANOVA
Experimental: as §4

[4] = test system: patient with pathogenic SYNGAP1 variant; test: EEG, hypnogram and quantitative EEG analysis pre- and post-PMP (case study); format: in vivo, human
Experimental: EEGs used for analysis were recorded with a 10-20 electrode placement system. EEGs were reviewed in Persyst (version 14, Persyst Development Corporation, Prescott, AZ). Long-duration continuous EEGs (≥16 h) that included awake and sleep states were reviewed in non-overlapping 10-second epochs. Each epoch was analyzed for the presence or absence of abnormalities and were given a binary score (1=present, 0=absent). The findings that were scored were abnormal slowing (generalized or focal, FIGS. 3A, B) and epileptiform discharges (generalized or focal, FIGS. 3C,D).
In order to characterize and quantify the clustered nature of spikes, hierarchical clustering analysis was implemented. Hierarchical clustering analysis groups data points based on Euclidean distance and the size of clusters were determined by the clustering coefficient. Average number of spike events in a cluster was computed for a sequence of increasing clustering coefficients, and the progressions for spike subtypes were compared. The rate at which the average spike events increased with respect to clustering coefficient and the size characterized the clustered nature of spike events.
Sleep stages were manually scored in 10 second epochs. FFT was applied to 10 second epochs in Sirenia Sleep software (Pinnacle Tech. Inc, Kansas USA) for further EEG analysis. […] To analyze the presence of similar gamma dysregulation in REM and NREM transition points, linear regression analysis was done on 10 min segment of the REM to NREM transition point

[5] = test system: patient with pathogenic SYNGAP1 variant; test: VB-MAPP assessment for verbal and social skills (case study); format: in vivo, human; design: key to VB-MAPP Communication: Manding / VB-MAPP Communication: Pointing/gesturing to preferred items / VB-MAPP Communication: Listener Responding-reinforcing/preferred items / VB-MAPP Communication: PECS-Phase 1 / VB-MAPP Cognitive: Motor imitation / VB-MAPP Cognitive: Receptive commands / VB-MAPP Social: Responds to name / VB-MAPP Social: Parallel play / VB-MAPP Social: Independent play / VB-MAPP Health: Feeding / VB-MAPP Behavior: Functional Communication training / VB-MAPP Behavior: Waiting: ↑ = improvement in skill from prior assessment; ↓ = worsening in skill from prior assessment
Experimental: as §1, §2, §3

[6] = test system: juvenile HET+/- (Syngap1+/-) mice; test: Movement analysis of fast-active events with infrared cameras; format: in vivo; details: 5-7 am, dark cycle; HET+/- with low-dose PMP vs WT+/+
Experimental: as §4

[7] = 6 months post-initiation, once daily low-dose PMP at bedtime
[8] = 3 months post PMP (dose 0.2 mg)
[9] = 10 months post PMP (dose 0.3 mg)

SMILES: N#Cc1ccccc1-c1cc(-c2ccccn2)cn(-c2ccccc2)c1=O [PMP, 3-(2-cyanophenyl)-5-(2-pyridyl)-1-phenyl-1,2-dihydropyridin-2-one]
- gamma dysregulation (Syngap1+/- mice; PMP-treated Syngap1+/- mice): significant rescue of the gamma dysregulation
- interictal spikes suppression (Syngap1+/- mice; epileptic mice, low dose): weaker effect on interictal spikes suppression
- excessive AMPA insertion and hyperexcitable phenotype (PV+ interneurons): rescue the excessive AMPA insertion and hyperexcitable phenotype
- tolerability ([1]; 1.5 mg daily at bed-time): tolerating it well
- fine and visual motor skills (occupational therapy evaluation) [1, 7]: improvement in their fine and visual motor skills
- independent walking [1, 7]: started walking independently
- tone and strength (physical therapy evaluation) [1, 7]: significant improvements in their tone and strength
- control of clinical seizures ([1]; low dose PMP): not helpful in controlling their clinical seizures
- motor, cognition, communication, social and behavior domains ([1]; low doses 0.2 mg->0.3 mg per day at bedtime): significant improvements
- tolerability / side effects ([1]; low-dose PMP 0.2 mg, then 0.3 mg every night, started): tolerated the PMP well without any side effects; also recorded: without significant side-effects
- sleep quality (parent report) ([1]; once daily low-dose PMP at bedtime): improvement in sleep quality with fewer night time awakenings
- cortical spike frequency [2]: reduced spike frequency in high spiking HET^+/− mice however group data was not statistically significant
- delta power during NREM ([3]; 24 h baseline vEEG, all groups incl. HET+/- PMP): did not show notable statistical significance across all groups
- delta power during NREM ([3]; 24 h vEEG with 6 h SD, all groups): did not show notable statistical significance across all groups
- gamma slope at behavioral transition points, wake to sleep ([3]; low-dose PMP 2 mg/kg, IP, BD, juvenile HET+/-, paired t-test p<0.05): significantly reduced the gamma slope and rescued the gamma homeostasis
- gamma slope at sleep transition points after 6 h SD ([3]; low-dose PMP 2 mg/kg, IP, sleep deprived HET+/-, paired t-test p<0.05): rescued gamma homeostasis by decreasing the most dominant slope
- prevalence of occipital intermittent rhythmic delta activity (OIRDA) ([4]; follow-up overnight EEG, post-PMP vs pre-PMP, wake and REM sleep): overall decrease in the prevalence of the OIRDA; also recorded: significantly reduced post-PMP
- effect on epileptiform discharges ([4]; low-dose PMP): did not have any significant effect on the epileptiform discharges
- prevalence of focal epileptiform discharges ([4]; post PMP vs pre PMP EEG): more prevalent post PMP compared to pre PMP
- gamma dysregulation: gamma slope at REM to NREM transitions ([4]; post-PMP EEG vs pre-PMP EEG, same patient): significantly alleviated; also recorded: significantly rescued
- VB-MAPP Behavior: Functional Communication training [5, 8]: ↑
- VB-MAPP Behavior: Waiting [5, 8]: ↑
- VB-MAPP Cognitive: Motor imitation [5, 8]: ↑
- VB-MAPP Cognitive: Receptive commands [5, 8]: ↑
- VB-MAPP Communication: Listener Responding-reinforcing/preferred items [5, 8]: ↑
- VB-MAPP Communication: Manding [5, 8]: ↑
- VB-MAPP Communication: PECS-Phase 1 [5, 8]: ↑
- VB-MAPP Communication: Pointing/gesturing to preferred items [5, 8]: ↑
- VB-MAPP Health: Feeding [5, 8]: ↑
- VB-MAPP Social: Independent play [5, 8]: ↑
- VB-MAPP Social: Parallel play [5, 8]: ↑
- VB-MAPP Social: Responds to name [5, 8]: ↑
- VB-MAPP score ([5]; 3 months post PMP, baseline prior to PMP 7/45): 10/45
- developmental goals mastered ([5]; 10 and 13 months post PMP): 37.2%
- VB-MAPP Behavior: Functional Communication training [5, 9]: ↑
- VB-MAPP Behavior: Waiting [5, 9]: ↑
- VB-MAPP Cognitive: Motor imitation [5, 9]: ↑
- VB-MAPP Cognitive: Receptive commands [5, 9]: ↑
- VB-MAPP Communication: Listener Responding-reinforcing/preferred items [5, 9]: ↓
- VB-MAPP Communication: Manding [5, 9]: ↓
- VB-MAPP Communication: PECS-Phase 1 [5, 9]: ↑
- VB-MAPP Communication: Pointing/gesturing to preferred items [5, 9]: ↑
- VB-MAPP Health: Feeding [5, 9]: ↑
- VB-MAPP Social: Independent play [5, 9]: ↑
- VB-MAPP Social: Parallel play [5, 9]: ↑
- VB-MAPP Social: Responds to name [5, 9]: ↑
- level of fast active events (hyperactivity) [6]: this relation was lost after the low-dose PMP administration
